pIC50: −log10 of the molar value.

For 34 molecules, IC50 results are on record in patent US20260166039A1 (SCHRÖDINGER, INC., priority 2022, published 2026).

T1 sequence (P30291 299-569 limits assumed): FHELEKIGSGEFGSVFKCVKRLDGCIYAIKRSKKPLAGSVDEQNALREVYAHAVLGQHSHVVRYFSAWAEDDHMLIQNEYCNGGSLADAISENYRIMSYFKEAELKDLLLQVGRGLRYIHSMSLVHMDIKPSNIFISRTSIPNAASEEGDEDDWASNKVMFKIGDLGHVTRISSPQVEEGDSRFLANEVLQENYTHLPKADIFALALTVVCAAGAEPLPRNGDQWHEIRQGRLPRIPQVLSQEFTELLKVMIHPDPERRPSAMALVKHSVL

The first assay addresses T1, Wee1 kinase domain (Homo sapiens, UniProt P30291).
T1 construct: Wee1 kinase domain was purchased from Carna (catalog #05-177); purchased Carna 05-177
Briefly: Wee1 Kinase Biochemical Assay (ADP-Glo). The settings on record: 1 nM Wee1 enzyme, 15 uM ATP, 4 hours at 25° C. Put shortly: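 Kinase domain (1 nM) incubated 4 h at 25 °C with 15 uM ATP and 2 ng/mL Poly(Lys,Tyr 4:1) in 40 mM Tris-HCl, 20 mM MgCl2, 0.1 mg/mL BSA, 2 mM DTT. ADP formation read by ADP-Glo luminescence; percent inhibition normalized to DMSO and saturating reference-inhibitor controls.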
A general note: In ADP-Glo the light output rises with the ADP produced.
With `CN(C)C1CCN(c2ccc(Nc3ncc4c(n3)N(c3ccccn3)[C@@H]3CC(C)(C)OC[C@]43C)cc2)CC1` (single isomer, unassigned) [Example 819], the pIC50 (usually −log10 of the IC50, conventionally taken in molar units) is more than 8.00.

Regarding `CC1(C)C[C@H]2N(c3cccc(N=S(C)(C)=O)n3)c3nc(Nc4cncc(C#N)c4)ncc3[C@@]2(C)CO1` (single isomer, unassigned) [Example 818], the pIC50 was more than 8.00.

Staying with this assay, now noted: Wee1 kinase domain, 15 uM ATP, ADP-Glo.
`C[C@H]1COC(=O)N1c1cccc(N2c3nc(Nc4ccc(O[C@@H]5CCNC5)cc4)ncc3[C@]3(C)COC(C)(C)C[C@H]23)n1` (single isomer, unassigned) [Example 326] had a pIC50 of 7.00 to 8.00.

`C[C@H]1COC(=O)N1c1cccc(N2c3nc(Nc4ccc(N5CCCN(C)CC5)cc4)ncc3[C@]3(C)COC(C)(C)C[C@H]23)n1` (single isomer, unassigned) [Example 298] had a pIC50 of 7.00 to 8.00.

For `C[C@H]1COC(=O)N1c1cccc(N2c3nc(Nc4ccc([C@H]5CCNC5)cc4)ncc3[C@]3(C)COC(C)(C)C[C@H]23)n1` (single isomer, unassigned) [Example 278], the negative logarithm of the IC50 (pIC50) was 7.00 to 8.00.

In turn, `C[C@H]1COC(=O)N1c1cccc(N2c3nc(Nc4ccc([C@@H]5CCN(C)C5)cc4)ncc3[C@]3(C)COC(C)(C)C[C@H]23)n1` (single isomer, unassigned) [Example 304] had a pIC50 of 7.00 to 8.00.

`CNCc1cccc(N2c3nc(Nc4ccc(N5C[C@@H](C)O[C@@H](C)C5)cc4)ncc3[C@]3(C)COC(C)(C)C[C@H]23)n1` [Example 19, (4bS,8aS)-N-(4-((2S,6R)-2,6-dimethylmorpholino)phenyl)-4b,7,7-trimethyl-9-(6-((methylamino)methyl)pyridin-2-yl)-4b,5,7,8,8a,9-hexahydropyrano[3′,4′:4,5]pyrrolo[2,3-d]pyrimidin-2-amine] showed a pIC50 of 6.00 to 7.00.

The molecule `Cc1cc(Nc2ncc3c(n2)N(c2cccc(N4C(=O)OC[C@@H]4C)n2)[C@H]2CC(C)(C)OC[C@@]32C)ccc1[C@@H]1CCNC1` (single isomer, unassigned) [Example 268] gave a negative-log IC50 (pIC50) of 7.00 to 8.00.

Molecule `CN[C@@H]1CCN(c2ccc(Nc3ncc4c(n3)N(c3cccc(N5C(=O)OC[C@@H]5C)n3)[C@H]3CC(C)(C)OC[C@@]43C)cc2)C1` (single isomer, unassigned) [Example 318] gave a pIC50 of 7.00 to 8.00.

The molecule `CN1CCC[C@H](n2cc(Nc3ncc4c(n3)N(c3cccc(N=S(C)(C)=O)n3)[C@H]3CC(C)(C)OC[C@@]43C)cn2)C1` (single isomer, unassigned) [Example 200] showed a negative-log IC50 (pIC50) of 7.00 to 8.00.

With `C[C@H]1COC(=O)N1c1cccc(N2c3nc(Nc4ccc(N5CCN(C)CC5)nn4)ncc3[C@]3(C)COC(C)(C)C[C@H]23)n1` (single isomer, unassigned) [Example 248], the pIC50 was 6.00 to 7.00.

As to `CN1CC[C@H](Oc2ccc(Nc3ncc4c(n3)N(c3cccc(N=S(C)(C)=O)n3)[C@H]3CC(C)(C)OC[C@@]43C)cc2)C1` (single isomer, unassigned) [Example 158], the negative logarithm of the IC50 (pIC50) is 6.00 to 7.00.

Turning to `CNCc1cccc(N2c3nc(Nc4ccc([C@H]5CCC(=O)N5C)nc4)ncc3[C@@]3(C)COC(C)(C)C[C@@H]23)n1` (single isomer, unassigned) [Example 98], the negative-log IC50 (pIC50) is more than 8.00.

As for `CN1CCC(c2ccc(Nc3ncc4c(n3)N(c3cccc(N=S(C)(C)=O)n3)[C@H]3CC(C)(C)OC[C@@]43C)cn2)CC1` (single isomer, unassigned) [Example 139], the pIC50 was 6.00 to 7.00.

As to `CC1(C)C[C@@H]2N(c3cccc(N=S(C)(C)=O)n3)c3nc(Nc4ccc([C@]5(C)CCNC5)cc4)ncc3[C@]2(C)CO1` (single isomer, unassigned) [Example 172], the negative logarithm of the IC50 (pIC50) is 7.00 to 8.00.

In turn, `CN(C)C(=O)c1ccc(Nc2ncc3c(n2)N(c2cccc(N=S(C)(C)=O)n2)[C@H]2CC(C)(C)OC[C@@]32C)cc1` (single isomer, unassigned) [Example 142] showed a pIC50 of 7.00 to 8.00.

For `Cc1cc(Nc2ncc3c(n2)N(c2cccc(N4C(=O)OC[C@@H]4C)n2)[C@H]2CC(C)(C)OC[C@@]32C)ccc1O[C@H]1CCN(C)C1` (single isomer, unassigned) [Example 344], the negative logarithm of the IC50 (pIC50) was 7.00 to 8.00.

`[2H]C([2H])([2H])N1CCC(c2ccc(Nc3ncc4c(n3)N(c3cccc(N=S(C)(C)=O)n3)[C@H]3CC(C)(C)OC[C@@]43C)cc2)CC1` (single isomer, unassigned) [Example 161] gave a pIC50 of 6.00 to 7.00.

Staying with this assay, now noted: class symbols; 1 nM Wee1 enzyme, 15 uM ATP, 4 hours at 25° C.
On to `CN1CC[C@@H](Oc2ccc(Nc3ncc4c(n3)N(c3cccc(N5CCOC5=O)n3)[C@H]3CC(C)(C)OC[C@@]43C)cc2)C1` [Example 625, 3-(6-((4bS,8aS)-4b,7,7-trimethyl-2-((4-(((R)-1-methylpyrrolidin-3-yl)oxy)phenyl)amino)-4b,7,8,8a-tetrahydropyrano[3′,4′:4,5]pyrrolo[2,3-d]pyrimidin-9(5H)-yl)pyridin-2-yl)oxazolidin-2-one], for which the pIC50 is 7.00 to 8.00.

Molecule `CN1CC[C@@H](Oc2ccc(Nc3ncc4c(n3)N(c3cccc(N5CCCC5=O)n3)[C@H]3CC(C)(C)OC[C@@]43C)cc2)C1` [Example 627, 1-(6-((4bS,8aS)-4b,7,7-trimethyl-2-((4-(((R)-1-methylpyrrolidin-3-yl)oxy)phenyl)amino)-4b,7,8,8a-tetrahydropyrano[3′,4′:4,5]pyrrolo[2,3-d]pyrimidin-9(5H)-yl)pyridin-2-yl)pyrrolidin-2-one] showed a pIC50 of 7.00 to 8.00.

`CNCc1cccc(N2c3nc(Nc4ccc(N5C[C@H]6C[C@@H](C5)O6)cc4)ncc3[C@]3(C)COC(C)(C)C[C@H]23)n1` (single isomer, unassigned) [Example 482] showed a pIC50 of 6.00 to 7.00.

Regarding `CN[C@@H](C)c1cccc(N2c3nc(Nc4ccc(N5CCOCC5)cc4)ncc3[C@]3(C)COC(C)(C)C[C@H]23)n1` (single isomer, unassigned) [Example 538], the pIC50 was 7.00 to 8.00.

Take `CN1C[C@H]2C[C@@H]1CN2c1ccc(Nc2ncc3c(n2)N(c2cccc(C(C)(C)O)n2)[C@H]2CC(C)(C)OC[C@@]32C)cc1F` (single isomer, unassigned) [Example 428]: the pIC50 was 6.00 to 7.00.

On to `CC1(C)C[C@H]2N(c3cccc(N=S(C)(C)=O)n3)c3nc(Nc4ccc(N5CCN6CCC[C@H]6C5)cc4)ncc3[C@@]2(C)CO1` (single isomer, unassigned) [Example 507], for which the pIC50 was more than 8.00.

The molecule `CC1(C)C[C@@H]2N(c3cccc(N4CCOC4=O)n3)c3nc(Nc4ccc(C5CNC5)cc4)ncc3[C@]2(C)CO1` [Example 667, 3-(6-((4bS,8aS)-2-((4-(azetidin-3-yl)phenyl)amino)-4b,7,7-trimethyl-4b,7,8,8a-tetrahydropyrano[3′,4′:4,5]pyrrolo[2,3-d]pyrimidin-9(5H)-yl)pyridin-2-yl)oxazolidin-2-one] had a negative-log IC50 (pIC50) of 7.00 to 8.00.

With `CN1C[C@@H]2C[C@H]1CN2c1ccc(Nc2ncc3c(n2)N(c2cccc(C(C)(C)O)n2)[C@H]2CC(C)(C)OC[C@@]32C)cc1F` (single isomer, unassigned) [Example 432], the pIC50 was 6.00 to 7.00.

In the case of `CC1(C)C[C@H]2N(c3ccccn3)c3nc(Nc4ccc(N5CCN6CC[C@@H]5C6)cc4)ncc3[C@@]2(C)CO1` [Example 808, (4bR,8aR)-N-(4-((5R)-1,4-diazabicyclo[3.2.1]octan-4-yl)phenyl)-4b,7,7-trimethyl-9-(pyridin-2-yl)-4b,5,7,8,8a,9-hexahydropyrano[3′,4′:4,5]pyrrolo[2,3-d]pyrimidin-2-amine], the pIC50 was more than 8.00.

`CNCc1cccc(N2c3nc(Nc4ccn(C)c(=O)c4)ncc3[C@]3(C)COC(C)(C)C[C@H]23)n1` (single isomer, unassigned) [Example 455]: the negative-log IC50 (pIC50) was not above 6.00.

Molecule `CN1CC[C@H]2CN(c3ccc(Nc4ncc5c(n4)N(c4cccc(N6CCCC6=O)n4)[C@H]4CC(C)(C)OC[C@@]54C)cc3)C[C@H]21` [Example 689, 1-(6-((4bS,8aS)-4b,7,7-trimethyl-2-((4-((3aS,6aS)-1-methylhexahydropyrrolo[3,4-b]pyrrol-5(1H)-yl)phenyl)amino)-4b,7,8,8a-tetrahydropyrano[3′,4′:4,5]pyrrolo[2,3-d]pyrimidin-9(5H)-yl)pyridin-2-yl)pyrrolidin-2-one] had a negative logarithm of the IC50 (pIC50) of 6.00 to 7.00.

In the case of `CNCc1cccc(N2c3nc(Nc4ccc(N5[C@@H]6COC[C@H]5C6)cc4)ncc3[C@]3(C)COC(C)(C)C[C@H]23)n1` (single isomer, unassigned) [Example 480], the negative-log IC50 (pIC50) was 6.00 to 7.00.

For `CN[C@H](C)c1cc(C)nc(N2c3nc(Nc4ccc(N5CCOCC5)cc4)ncc3[C@]3(C)COC(C)(C)C[C@H]23)c1` (single isomer, unassigned) [Example 558], the pIC50 was 6.00 to 7.00.

Regarding `CC[C@]1(O)CCc2ccc(N3c4nc(Nc5ccn(C6CCN(C)CC6)c(=O)c5)ncc4[C@@]4(C)COC(C)(C)C[C@@H]34)nc21` [Example 811, 4-(((4bR,8aR)-9-((S)-7-ethyl-7-hydroxy-6,7-dihydro-5H-cyclopenta[b]pyridin-2-yl)-4b,7,7-trimethyl-4b,5,7,8,8a,9-hexahydropyrano[3′,4′:4,5]pyrrolo[2,3-d]pyrimidin-2-yl)amino)-1-(1-methylpiperidin-4-yl)pyridin-2(1H)-one], the pIC50 is more than 8.00.

On to `CN1C[C@@H]2C[C@H]1CN2c1ccc(Nc2ncc3c(n2)N(c2cccc(N4CCCC4=O)n2)[C@H]2CC(C)(C)OC[C@@]32C)cc1` [Example 628, 1-(6-((4bS,8aS)-4b,7,7-trimethyl-2-((4-((1S,4S)-5-methyl-2,5-diazabicyclo[2.2.1]heptan-2-yl)phenyl)amino)-4b,7,8,8a-tetrahydropyrano[3′,4′:4,5]pyrrolo[2,3-d]pyrimidin-9(5H)-yl)pyridin-2-yl)pyrrolidin-2-one], for which the pIC50 was 6.00 to 7.00.

`CN1C[C@H]2C[C@@H]1CN2c1ccc(Nc2ncc3c(n2)N(c2cccc(N4CCOC4=O)n2)[C@H]2CC(C)(C)OC[C@@]32C)cc1` (single isomer, unassigned) [Example 592] had a pIC50 of 7.00 to 8.00.
